From patent publication US9708639B2, “Method for quantifying amino acids with pyrophosphate” (TOYAMA PREFECTURE, priority 2012, dated 2017)

Assays:
Thermus-derived MetRS = target: T1, Thermus-derived MetRS (Thermus thermophilus, UniProt P23395); assay: Qualitative test of AARS substrate specificity (AARS activity at 70° C.); type: biochemical, Thermus thermophilus HB8 strain; design: key: +: Activity was detected; −: Activity was not detected; conditions: amino acids 200 μM, hydroxylamine 400 mM
T1 construct: host or cells: Escherichia coli BL21 (DE3)
T1 sequence (P23395 whole entry): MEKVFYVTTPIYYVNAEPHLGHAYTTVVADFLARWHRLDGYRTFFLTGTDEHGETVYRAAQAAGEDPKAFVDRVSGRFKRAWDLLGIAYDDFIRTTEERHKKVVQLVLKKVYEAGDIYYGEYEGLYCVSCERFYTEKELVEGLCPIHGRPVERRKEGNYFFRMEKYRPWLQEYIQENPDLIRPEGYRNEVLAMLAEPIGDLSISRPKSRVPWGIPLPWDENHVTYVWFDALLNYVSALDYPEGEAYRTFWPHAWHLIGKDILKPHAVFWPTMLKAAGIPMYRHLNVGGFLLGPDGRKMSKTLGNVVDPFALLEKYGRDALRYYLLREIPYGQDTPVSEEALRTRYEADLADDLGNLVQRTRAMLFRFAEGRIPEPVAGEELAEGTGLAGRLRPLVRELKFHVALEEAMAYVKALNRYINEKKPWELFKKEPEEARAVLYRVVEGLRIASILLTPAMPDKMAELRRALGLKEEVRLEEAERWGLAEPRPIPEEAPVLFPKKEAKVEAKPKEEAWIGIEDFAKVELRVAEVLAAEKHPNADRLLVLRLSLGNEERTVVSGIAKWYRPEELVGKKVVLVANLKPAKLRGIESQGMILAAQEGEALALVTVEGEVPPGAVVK
Protocol: (§1) A test sample containing an amino acid as the measurement subject and a reaction mixture for quantifying amino acid having the following composition were mixed. The mixture was left standing at 70° C. to allow the AARS reaction to advance. The mixture in a volume of 600 μl, 60 μl of a 1 M 2-mercaptoethanol solution, and 240 μl of the color development solution mentioned below were mixed, then the mixture was left standing at room temperature for 20 minutes, and the absorbance was measured at 580 nm in a cuvette having an optical path length of 1 cm.
(§2) Reaction mixture for quantifying amino acid: 20 mM HEPES-NaOH (pH 8.0), 5 mM MgCl2, 0.5 mM ATP, and AARS (concentrations are final concentrations obtained after mixing with test sample)
(§3) Color developing solution: A solution obtained by mixing water and concentrated sulfuric acid at a ratio of 6:1 and dissolving (NH4)6Mo7O24.4H2O in the mixture at a concentration of 0.025 g/ml
(§4) Presence or absence of pyrophosphate generation was verified for the Thermotoga-derived CysRS, HisRS, LysRS, ProRS, SerRS, TrpRS, and TyrRS by using the AARS activity measurement method described in 9. and standard solutions of the various amino acids as test samples. AARSs were added to the reaction mixture at final concentrations of 0.3 (8 mU/ml), 0.1, 0.2 (3 mU/ml), 0.2, 0.1 (1 mU/ml), 0.1, 0.2 (20 mU/ml) mg/ml, respectively. The reaction mixtures were prepared so that the final concentration of Tyr was 1 mM, and the final concentrations of the other amino acids were 5 mM. As for the hydroxylamine concentration, it was added at a final concentration of 1000 mM for all the cases. Further, presence or absence of pyrophosphate production was also verified for the Thermus-derived MetRS and TyrRS by using the AARS activity measurement method described in 10. and standard solutions of the various amino acids as test samples. The reaction mixtures were prepared so that the final concentrations of the amino acids were 200 μM. Hydroxylamine was added at a final concentration of 400 mM.
(§5) Detection or no detection of the activity in the reaction mixtures containing a combination of each AARS and amino acid are shown in Table 2. The symbol + indicates detection of the activity, and − indicates no detection of the activity.

Thermus-derived TyrRS = target: T2, Thermus-derived TyrRS (Thermus thermophilus, UniProt P83453); assay: as above; type: biochemical, Thermus thermophilus HB8 strain; design: key: +: Activity was detected; −: Activity was not detected; conditions: amino acids 200 μM, hydroxylamine 400 mM
T2 construct: host or cells: Escherichia coli BL21 (DE3)
T2 sequence (P83453 whole entry): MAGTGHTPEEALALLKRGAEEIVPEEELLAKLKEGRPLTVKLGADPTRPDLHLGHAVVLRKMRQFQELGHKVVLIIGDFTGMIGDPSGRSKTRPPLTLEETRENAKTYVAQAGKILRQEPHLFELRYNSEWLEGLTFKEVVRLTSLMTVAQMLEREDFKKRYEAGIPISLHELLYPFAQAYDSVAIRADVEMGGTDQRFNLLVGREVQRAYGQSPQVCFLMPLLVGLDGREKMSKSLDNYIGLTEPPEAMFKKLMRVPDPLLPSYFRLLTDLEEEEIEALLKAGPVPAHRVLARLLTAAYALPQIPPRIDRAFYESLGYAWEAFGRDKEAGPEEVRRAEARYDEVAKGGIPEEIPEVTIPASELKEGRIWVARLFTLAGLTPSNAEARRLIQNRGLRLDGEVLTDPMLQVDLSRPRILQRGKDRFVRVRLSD
Protocol: as §1, §2, §3, §4, §5

Thermotoga-derived TyrRS = target: T3, Thermotoga-derived TyrRS (Thermotoga maritima, UniProt Q9WYU8); assay: Calibration curve for amino acid by coupled PPDK and LDH; type: biochemical, Thermotoga maritima MSB8 strain; conditions: Tyr 0 to 200 μM; hydroxylamine 200 mM; TyrRS 0.4 mg/ml (40 mU/ml); 30° C.
T3 construct: The amplification products were each inserted into pET-28a to obtain plasmids for expression of respective AARSs; His tag (N); made in house; host or cells: Escherichia coli BL21 (DE3)
T3 sequence (Q9WYU8 1-401): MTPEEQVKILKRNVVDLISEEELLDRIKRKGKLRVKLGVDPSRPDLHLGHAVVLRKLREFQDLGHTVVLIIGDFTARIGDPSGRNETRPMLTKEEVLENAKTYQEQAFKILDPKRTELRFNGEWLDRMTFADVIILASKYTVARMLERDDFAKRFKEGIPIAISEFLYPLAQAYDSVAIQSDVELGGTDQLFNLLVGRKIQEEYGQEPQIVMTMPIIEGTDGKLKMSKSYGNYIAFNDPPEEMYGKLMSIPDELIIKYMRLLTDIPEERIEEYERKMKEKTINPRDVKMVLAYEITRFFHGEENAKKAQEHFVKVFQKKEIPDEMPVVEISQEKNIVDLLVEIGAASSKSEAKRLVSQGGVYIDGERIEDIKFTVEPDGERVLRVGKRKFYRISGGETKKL
Protocol: A test sample containing an amino acid as the measurement subject and a reaction mixture for quantifying amino acid having the following composition were mixed. The mixture was left standing at 30° C. to allow the AARS, PPDK, and LDH reactions to advance, and decrease of the absorbance at 340 nm was measured. The volume of the mixture was 200 μl, and after the reaction mixture was put into the wells of a 96-well microplate, the absorbance was measured with a microplate reader.
Reaction mixture for quantifying amino acid: 20 mM Tris-HCl (pH 7.0), 10 mM MgCl2, 10 mM NH4Cl, 0.3 mM PEP, 0.3 mM NADH, 0.2 mM ATP, 0.2 mM AMP, 70 mU/ml PPDK, 50 U/ml LDH, and AARS (concentrations are final concentrations obtained after mixing with test sample)
Calibration curves were prepared by using the AARS activity measurement method described in 8. and standard Cys, Lys, Ser, and Tyr solutions as test samples. The concentrations of the aforementioned amino acids were set so that the final concentrations thereof are in the range of 0 to 200 μM. The hydroxylamine concentration was 200 mM for the samples used for the Tyr calibration curve, or 1000 mM for the samples used for the Cys, Lys, and Ser calibration curves. The Thermotoga-derived CysRS, LysRS, SerRS, TyrRS, and the Thermus-derived TyrRS were added to the reaction mixture at final concentrations of 0.2 (7 mU/ml), 0.1 (10 mU/ml), 0.2 (8 mU/ml), 0.4 (40 mU/ml), and 0.1 mg/ml, respectively.
Calibration curves could be similarly prepared when adding pyrophosphate instead of the aforementioned amino acids, but the inclinations of the Lys, Ser, and Tyr calibration curves (absorbance change per mM of substrate) were 80% or more of the inclination of the pyrophosphate calibration curve. […] The inclination of the Cys calibration curve was slightly smaller than those of the other calibration curves, and it is considered that this is because a part of cysteine in the test sample was converted into cystine by air oxidation, and the real concentration of cysteine was reduced.

Compound | Detection of the activity (pyrophosphate production), MetRS (Thermus) (Thermus-derived MetRS) | Detection of the activity (pyrophosphate production), TyrRS (Thermus) (Thermus-derived TyrRS) | inclination of calibration curve relative to inclination of the pyrophosphate calibration curve (Thermotoga-derived TyrRS) [%]
C[C@H](N)C(=O)O [Ala, L-alanine] | − | − | 
N=C(N)NCCC[C@H](N)C(=O)O [Arg, L-arginine] | − | − | 
NC(=O)C[C@H](N)C(=O)O [Asn, L-asparagine] | − | − | 
N[C@@H](CC(=O)O)C(=O)O [Asp, L-aspartic acid] | − | − | 
N[C@@H](CS)C(=O)O [Cys, L-cysteine] | − | − | 
NC(=O)CC[C@H](N)C(=O)O [Gln, L-glutamine] | − | − | 
N[C@@H](CCC(=O)O)C(=O)O [Glu, L-glutamic acid] | − | − | 
NCC(=O)O [Gly, glycine] | − | − | 
N[C@@H](Cc1c[nH]cn1)C(=O)O [His, L-histidine] | − | − | 
CC[C@H](C)[C@H](N)C(=O)O [Ile, L-isoleucine] | − | − | 
CC(C)C[C@H](N)C(=O)O [Leu, L-leucine] | − | − | 
NCCCC[C@H](N)C(=O)O [Lys, L-lysine] | − | − | 
CSCC[C@H](N)C(=O)O [Met, L-methionine] | + | − | 
N[C@@H](Cc1ccccc1)C(=O)O [Phe, L-phenylalanine] | − | − | 
O=C(O)[C@@H]1CCCN1 [Pro, L-proline] | − | − | 
N[C@@H](CO)C(=O)O [Ser, L-serine] | − | − | 
C[C@@H](O)[C@H](N)C(=O)O [Thr, L-threonine] | − | − | 
N[C@@H](Cc1c[nH]c2ccccc12)C(=O)O [Trp, L-tryptophan] | − | − | 
N[C@@H](Cc1ccc(O)cc1)C(=O)O [Tyr, L-tyrosine] | − | + | ≥ 80
CC(C)[C@H](N)C(=O)O [Val, L-valine] | − | − | 
